Measured values: PubChem BioAssay AID1259407 (Chemical Carcinogenesis Research Information System (CCRIS), 2018)
Calls of active or inactive are those of the source. No rule for the calls is given here.

Tested on: CCRIS mutagenicity, Ames/micronucleus/aberration tests
Test: CCRIS mutagenicity studies

CCOCC(O)COc1ccc(NC(=O)CC[S+](C)C)cc1 (centres undefined)
mutagenic call (Test System: AMES SALMONELLA TYPHIMURIUM, Strain/Indicator: TA98, Metabolic Activation: NONE, Method: STANDARD PLATE): inactive; negative
mutagenic call (Test System: AMES SALMONELLA TYPHIMURIUM, Strain/Indicator: TA98, Metabolic Activation: RAT, LIVER, S-9, Method: STANDARD PLATE): inactive; negative
mutagenic call (Test System: AMES SALMONELLA TYPHIMURIUM, Strain/Indicator: TA100, Metabolic Activation: NONE, Method: STANDARD PLATE): inactive; negative
mutagenic call (Test System: AMES SALMONELLA TYPHIMURIUM, Strain/Indicator: TA100, Metabolic Activation: RAT, LIVER, S-9, Method: STANDARD PLATE): inactive; negative
mutagenic call (Test System: AMES SALMONELLA TYPHIMURIUM, Strain/Indicator: TA1535, Metabolic Activation: NONE, Method: STANDARD PLATE): inactive; negative
mutagenic call (Test System: AMES SALMONELLA TYPHIMURIUM, Strain/Indicator: TA1535, Metabolic Activation: RAT, LIVER, S-9, Method: STANDARD PLATE): inactive; negative
mutagenic call (Test System: AMES SALMONELLA TYPHIMURIUM, Strain/Indicator: TA1537, Metabolic Activation: NONE, Method: STANDARD PLATE): inactive; negative
mutagenic call (Test System: AMES SALMONELLA TYPHIMURIUM, Strain/Indicator: TA1537, Metabolic Activation: RAT, LIVER, S-9, Method: STANDARD PLATE): inactive; negative
mutagenic call (Test System: AMES SALMONELLA TYPHIMURIUM, Strain/Indicator: TA1538, Metabolic Activation: NONE, Method: STANDARD PLATE): inactive; negative
mutagenic call (Test System: AMES SALMONELLA TYPHIMURIUM, Strain/Indicator: TA1538, Metabolic Activation: RAT, LIVER, S-9, Method: STANDARD PLATE): inactive; negative
mutagenic call (Test System: E. COLI, Strain/Indicator: WP2, Metabolic Activation: NONE, Method: STANDARD PLATE): inactive; negative
mutagenic call (Test System: E. COLI, Strain/Indicator: WP2, Metabolic Activation: RAT, LIVER, S-9, Method: STANDARD PLATE): inactive; negative
mutagenic call (Test System: E. COLI, Strain/Indicator: WP2 UVRA, Metabolic Activation: NONE, Method: STANDARD PLATE): inactive; negative
mutagenic call (Test System: E. COLI, Strain/Indicator: WP2 UVRA, Metabolic Activation: RAT, LIVER, S-9, Method: STANDARD PLATE): inactive; negative

O=c1[nH]c(=O)n([C@@H]2O[C@H](CO)[C@@H](O)[C@@H]2O)cc1/C=C/Br
mutagenic call (Test System: CHINESE HAMSTER V-79, Strain/Indicator: V-79/8-AZAGUANINE, Metabolic Activation: NONE): inactive; negative
mutagenic call (Test System: UDS RODENT HEPATOCYTES, Strain/Indicator: THY INCORP, Metabolic Activation: NONE): inactive; negative

CC(=O)Nc1ccc2c(c1)Cc1cc(NC(C)=O)ccc1-2
mutagenic call (Test System: AMES SALMONELLA TYPHIMURIUM, Strain/Indicator: TA1538, Metabolic Activation: RAT, LIVER, S-9, PHENOBARBITAL, Method: STANDARD PLATE): active; positive

O=S(=O)(O)Oc1cccc2c1cc1ccc3cccc4ccc2c1c34
mutagenic call (Test System: AMES SALMONELLA TYPHIMURIUM, Strain/Indicator: TA98, Metabolic Activation: NONE, Method: PREINCUBATION): inactive; negative
mutagenic call (Test System: AMES SALMONELLA TYPHIMURIUM, Strain/Indicator: TA98, Metabolic Activation: RAT, LUNG, S-9, Method: PREINCUBATION): inactive; negative
